Patent publication US20230365584A1, “HETEROCYCLIC PERICONDENSED CDC7 KINASE INHIBITORS FOR THE TREATMENT OF CANCER” (SCHRÖDINGER, INC., priority 2020, published 2023)

Experiments:
[1] = target: Full length human CDC7 protein co-expressed with DBF4 (Homo sapiens (Human), UniProt O00311); test: CDC7 kinase biochemical assay (ADP-Glo, PDKtide substrate); conditions: 0.1 nM CDC7/DBF4, 1 uM ATP, 10 uM PDKtide, 4 h
Procedure: CDC7 Kinase Biochemical Assay Protocol:
Full length human CDC7 protein co-expressed with DBF4 was purchased from SignalChem (China). CDC7 kinase activity was determined with PDKtide (SignalChem) as a substrate and by measuring ADP production using the ADP-Glo™ Kinase Assay kit (Promega) following the manufacturers instructions. The kinase reaction was performed using the following conditions: Buffer: 40 mM Tris pH 7.5, 20 mM MgCl2, 0.1 mg/ml BSA and 50 uM DTT. Final reaction mix contained 0.1 nM CDC7/DBF4, 1 uM ATP and 10 uM PDKtide. The kinase reaction time was 4 h. The ADP-Glo signal was measured using an EnVision plate reader (PerkinELmer).
Percent inhibition of CDC7 kinase activity was calculated based on the following formula:
[formula] • Ssample: the signal of compounds • SHigh Ctrl: the signal of high control (DMSO) • SLow Ctrl: the signal of low control (positive control CDC7 inhibitor)

[2] = tested on: phosphorylation of MCM2 S53 in colo205 cells; test: Phosphorylated MCM2 MSD electrochemiluminescence assay; assay type: cell-based; conditions: Homo sapiens, COLO 205, 20 h incubation, read-out: pMCM2-S53 MSD Colo205 IC50
Procedure: Phosphorylated MCM2 MSD Electrochemiluminescence Assay
The effect of CDC7 inhibitors on cellular phosphorylation of the CDC7 substrate MCM2 was determined using the following protocol:
A total of 40,000 colo205 cells in 100 uL culture medium (1640 medium+10% Fetal bovine serum+1% Penicillin-Streptomycin) were plated in 96-well cell culture plates and allowed to attach for 6 hours. 3-fold serial dilutions of test compounds were prepared in completed PBS at 25×final concentration and 4 uL of each were added to the cells and incubated for 20 hours at 37° C., 5% CO2. Each concentration was tested in duplicate. After the 20 h incubation, cells were washed with 150 uL PBS and lysed with 40 uL MSD lysis buffer (obtained from Meso Scale Diagnostics) supplied with 1×complete ULTRA cocktail inhibitor (obtained from Roche). To detect phosphorylation of MCM2 S53, 30 μL of capture antibody solution (obtained from Abnova, catalog number H00004171-MO1, 1:500) was added to each well of MULTI-ARRAY 96-well High Bind Plate, and incubated overnight. The antibody solution was removed, wells blocked with BSA solution and plates washed, followed by addition of 30 ul of cell lysate per well. After 2 h incubation, plates were washed. 30 μL of 1×detection antibody solution (obtained from Abcam, catalog number ab109133, 1:1000) was then added to each well and incubate for 1 hour. Plates were washed and 30 μL of 1×secondary antibody solution (obtained from MSD, catalog number R32AB-1, 1:5000) was added to each well and incubate for 1 hour. Plates were washed and 150 µL of 1×Read Buffer T was added to each well of the MSD plate. The electrochemiluminescence signal was measured on a MESO SECTOR S600 plate reader. The percentage of remaining phosphorylated MCM2 signal was calculated following the equation below.
[formula] • HC (high control): Cells treated with DMSO • Cpds: Cells treated with test compounds • LC (low control): Cells treated with positive control CDC7 inhibitor

Chain of Full length human CDC7 protein co-expressed with DBF4 (O00311 whole entry): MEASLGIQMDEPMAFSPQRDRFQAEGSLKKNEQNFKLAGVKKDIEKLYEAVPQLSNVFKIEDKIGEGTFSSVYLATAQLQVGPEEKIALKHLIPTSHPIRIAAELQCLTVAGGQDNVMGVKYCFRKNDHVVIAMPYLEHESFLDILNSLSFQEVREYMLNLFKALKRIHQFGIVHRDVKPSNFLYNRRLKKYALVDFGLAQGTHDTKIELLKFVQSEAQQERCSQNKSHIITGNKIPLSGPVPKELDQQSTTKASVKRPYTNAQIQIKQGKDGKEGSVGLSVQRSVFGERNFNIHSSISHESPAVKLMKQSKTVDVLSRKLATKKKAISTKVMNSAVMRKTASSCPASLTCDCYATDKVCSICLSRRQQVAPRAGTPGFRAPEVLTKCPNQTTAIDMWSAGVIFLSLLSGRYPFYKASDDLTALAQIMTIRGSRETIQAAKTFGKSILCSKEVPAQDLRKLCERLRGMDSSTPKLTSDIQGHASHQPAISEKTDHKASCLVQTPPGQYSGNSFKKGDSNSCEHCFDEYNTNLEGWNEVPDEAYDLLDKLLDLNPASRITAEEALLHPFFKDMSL
Chain of Full length human CDC7 protein co-expressed with DBF4 (Q9UBU7 whole entry partner): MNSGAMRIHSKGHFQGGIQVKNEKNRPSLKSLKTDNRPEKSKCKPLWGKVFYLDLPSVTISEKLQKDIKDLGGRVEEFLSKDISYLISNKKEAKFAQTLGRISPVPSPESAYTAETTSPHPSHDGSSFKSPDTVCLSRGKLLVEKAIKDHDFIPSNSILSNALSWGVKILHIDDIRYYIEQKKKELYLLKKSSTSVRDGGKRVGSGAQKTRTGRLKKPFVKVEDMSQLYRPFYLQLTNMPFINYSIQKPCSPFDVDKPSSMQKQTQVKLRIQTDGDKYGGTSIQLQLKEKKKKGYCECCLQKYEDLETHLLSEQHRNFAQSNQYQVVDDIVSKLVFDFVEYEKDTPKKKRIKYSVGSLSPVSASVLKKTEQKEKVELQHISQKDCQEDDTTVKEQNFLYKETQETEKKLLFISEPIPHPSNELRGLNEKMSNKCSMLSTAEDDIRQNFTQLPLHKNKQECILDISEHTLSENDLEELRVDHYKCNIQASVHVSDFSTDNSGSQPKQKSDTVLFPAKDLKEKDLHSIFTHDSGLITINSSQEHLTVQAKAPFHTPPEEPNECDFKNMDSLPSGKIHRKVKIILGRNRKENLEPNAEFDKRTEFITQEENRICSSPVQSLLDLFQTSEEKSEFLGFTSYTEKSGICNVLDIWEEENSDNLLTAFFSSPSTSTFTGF

For `Cc1[nH]c(=O)c2sc(-c3ccncc3)c3c2c1C[C@@H](C)O3` (single isomer, unassigned) [Example 7], the IC50 [1] was < 1 nM and the IC50 [2] was 100 to 1000 nM.
In the case of `Cc1[nH]c(=O)c2sc(-c3ccncc3)c3c2c1C[C@H](C)O3` (single isomer, unassigned) [Example 8], the IC50 [1] is reported as < 1 nM and the IC50 [2] is reported as 100 to 1000 nM.
With `C[C@@H](c1[nH]c(=O)c2sc(-c3cn[nH]c3)c3c2c1CCCO3)N1CCC1` (single isomer, unassigned) [Example 30] the IC50 [1] was < 1 nM and the IC50 [2] was < 100 nM.
`C[C@H](c1[nH]c(=O)c2sc(-c3cn[nH]c3)c3c2c1CCCO3)N1CCC1` (single isomer, unassigned) [Example 31] was tested, and the IC50 [1] was < 1 nM and the IC50 [2] was < 100 nM.
For `C[C@H](c1[nH]c(=O)c2sc(-c3cn[nH]c3)c3c2c1CCCO3)n1cccn1` (single isomer, unassigned) [Example 46], the IC50 [1] was < 1 nM and the IC50 [2] was 100 to 1000 nM.
For `C[C@@H](c1[nH]c(=O)c2sc(-c3cn[nH]c3)c3c2c1CCCO3)n1cccn1` (single isomer, unassigned) [Example 47], the IC50 [1] was < 1 nM and the IC50 [2] was < 100 nM.
For `CC[C@](C)(O)c1[nH]c(=O)c2sc(-c3cn[nH]c3)c3c2c1CCCO3` (single isomer, unassigned) [Example 57], the IC50 [1] was < 1 nM and the IC50 [2] was < 100 nM.
`CC[C@@](C)(O)c1[nH]c(=O)c2sc(-c3cn[nH]c3)c3c2c1CCCO3` (single isomer, unassigned) [Example 58] was tested, and the IC50 [1] was < 1 nM and the IC50 [2] was < 100 nM.
For `Cc1[nH]c(=O)c2sc(-c3ccncc3)c3c2c1CCCO3` [Example 1, 5-methyl-1-(pyridin-4-yl)-4,6,7,8-tetrahydro-3H-9-oxa-2-thia-4-azabenzo[cd]azulen-3-one], the IC50 [1] was < 1 nM and the IC50 [2] was 100 to 1000 nM.
`Cc1[nH]c(=O)c2sc(-c3cn[nH]c3)c3c2c1CCCO3` [Example 5, 5-methyl-1-(1H-pyrazol-4-yl)-4,6,7,8-tetrahydro-3H-9-oxa-2-thia-4-azabenzo[cd]azulen-3-one] was tested, and the IC50 [1] was < 1 nM and the IC50 [2] was < 100 nM.
`O=c1[nH]c(CN2CCC2)c2c3c(c(-c4cn[nH]c4)sc13)OCCC2` [Example 13, 5-(azetidin-1-ylmethyl)-1-(1H-pyrazol-4-yl)-4,6,7,8-tetrahydro-3H-9-oxa-2-thia-4-azabenzo[cd]azulen-3-one] was tested, and the IC50 [1] was < 1 nM and the IC50 [2] was < 100 nM.
`CC(C)NCc1[nH]c(=O)c2sc(-c3cn[nH]c3)c3c2c1CCCO3` [Example 24, 5-((isopropylamino)methyl)-1-(1H-pyrazol-4-yl)-4,6,7,8-tetrahydro-3H-9-oxa-2-thia-4-azabenzo[cd]azulen-3-one] was tested, and the IC50 [1] was < 1 nM and the IC50 [2] was 100 to 1000 nM.
With `CC(C)(O)c1[nH]c(=O)c2sc(-c3cn[nH]c3)c3c2c1CCCO3` [Example 28, 5-(2-hydroxypropan-2-yl)-1-(1H-pyrazol-4-yl)-4,6,7,8-tetrahydro-3H-9-oxa-2-thia-4-azabenzo[cd]azulen-3-one] the IC50 [1] was < 1 nM and the IC50 [2] was < 100 nM.
For `O=c1[nH]c(CN2CCC2)c2c3c(c(-c4cn[nH]c4)sc13)OCC(F)(F)C2` [Example 44, 7-(azetidin-1-ylmethyl)-10,10-difluoro-2-(1H-pyrazol-4-yl)-12-oxa-3-thia-6-azatricyclo[6.4.1.0^4,13]trideca-1,4(13),7-trien-5-one], the IC50 [1] was < 1 nM and the IC50 [2] was < 100 nM.
With `O=C(c1[nH]c(=O)c2sc(-c3cn[nH]c3)c3c2c1CCCO3)N1CCCC1` [Example 51, 2-(1H-pyrazol-4-yl)-7-(pyrrolidine-1-carbonyl)-12-oxa-3-thia-6-azatricyclo[6.4.1.0^4,13]-trideca-1,4(13),7-trien-5-one] the IC50 [1] was 1 to 10 nM and the IC50 [2] was ≥ 1000 nM.
`O=C(c1[nH]c(=O)c2sc(-c3cn[nH]c3)c3c2c1CCCO3)N1CCOCC1` [Example 52, 7-(morpholine-4-carbonyl)-2-(1H-pyrazol-4-yl)-12-oxa-3-thia-6-azatricyclo[6.4.1.0^4,13]-trideca-1,4(13),7-trien-5-one] showed an IC50 [1] of 1 to 10 nM.
In the case of `O=C(c1[nH]c(=O)c2sc(-c3cn[nH]c3)c3c2c1CCCO3)N1CC(O)C1` [Example 53, 5-(3-hydroxyazetidine-1-carbonyl)-1-(1H-pyrazol-4-yl)-4,6,7,8-tetrahydro-3H-9-oxa-2-thia-4-azabenzo[cd]azulen-3-one], the IC50 [1] is reported as 1 to 10 nM.
For `Nc1[nH]c(=O)c2sc(-c3cn[nH]c3)c3c2c1CCCO3` [Example 54, 7-amino-2-(1H-pyrazol-4-yl)-12-oxa-3-thia-6-azatricyclo[6.4.1.0^4,13]trideca-1,4(13),7-trien-5-one], the IC50 [1] was < 1 nM and the IC50 [2] was ≥ 1000 nM.
`O=c1[nH]c(COC2CCC2)c2c3c(c(-c4cn[nH]c4)sc13)OCCC2` [Example 55, 5-(cyclobutoxymethyl)-1-(1H-pyrazol-4-yl)-4,6,7,8-tetrahydro-3H-9-oxa-2-thia-4-azaben-zo[cd]azulen-3-one] was tested, and the IC50 [1] was < 1 nM and the IC50 [2] was < 100 nM.
For `CC(=O)N(C)c1[nH]c(=O)c2sc(-c3cn[nH]c3)c3c2c1CCCO3` [Example 56, N-methyl-N-(3-oxo-1-(1H-pyrazol-4-yl)-4,6,7,8-tetrahydro-3H-9-oxa-2-thia-4-azabenzo[cd]azulen-5-yl)acetamide], the IC50 [1] was < 1 nM.
With `N#CCc1[nH]c(=O)c2sc(-c3cn[nH]c3)c3c2c1CCCO3` [Example 75, 2-(3-oxo-1-(1H-pyrazol-4-yl)-4,6,7,8-tetrahydro-3H-9-oxa-2-thia-4-azabenzo[cd]azulen-5-yl)acetonitrile] the IC50 [1] was < 1 nM.
`COC(=O)Cc1[nH]c(=O)c2sc(-c3cn[nH]c3)c3c2c1CCCO3` [Example 76, methyl 2-(3-oxo-1-(1H-pyrazol-4-yl)-4,6,7,8-tetrahydro-3H-9-oxa-2-thia-4-azabenzo[cd]azulen-5-yl)acetate] was tested, and the IC50 [1] was < 1 nM.
In the case of `CC(C)(O)Cc1[nH]c(=O)c2sc(-c3cn[nH]c3)c3c2c1CCCO3` [Example 77, 5-(2-hydroxy-2-methylpropyl)-1-(1H-pyrazol-4-yl)-4,6,7,8-tetrahydro-3H-9-oxa-2-thia-4-azabenzo[cd]azulen-3-one], the IC50 [1] is reported as < 1 nM.
With `O=c1[nH]c(CN2CC(O)C2)c2c3c(c(-c4cn[nH]c4)sc13)OCCC2` [Example 78, 7-[(3-hydroxyazetidin-1-yl)methyl]-2-(1H-pyrazol-4-yl)-12-oxa-3-thia-6-azatricyclo [6.4.1.0^4,13]trideca-1,4(13),7-trien-5-one] the IC50 [1] was < 1 nM.
For `O=c1[nH]c(C2(O)CCCC2)c2c3c(c(-c4cn[nH]c4)sc13)OCCC2` [Example 85, 5-(1-hydroxycyclopentyl)-1-(1H-pyrazol-4-yl)-4,6,7,8-tetrahydro-3H-9-oxa-2-thia-4-azabenzo[cd]azulen-3-one], the IC50 [1] was < 1 nM.
